From patent publication US5217960A, “Erythromycin derivatives” (priority 1991, dated 1993)
≈ marks a conversion by molar mass, not a printed value. Read-outs that look alike come from different tables or passages of the source.

Experiments:
Type in all cases: cell-based
[1] = tested on: STAPHYLOCOCCUS AUREUS CMX 553; experiment: In vitro antibacterial activity, agar dilution MIC; details: 24 h
[2] = tested on: STAPHYLOCOCCUS AUREUS A5177; experiment: In vitro antibacterial activity, agar dilution MIC
ESCHERICHIA COLI KNK 437 = experiment: microbe, parasite or virus in culture
[3] = tested on: PSEUDOMONAS AERUGINOSA A5007; experiment: In vitro antibacterial activity, agar dilution MIC; details: P. aeruginosa A5007, BHI agar, 35-37° C., 20 to 24 hours
[4] = tested on: STAPHYLOCOCCUS AUREUS NCTC 10649; experiment: In vitro antibacterial activity, agar dilution MIC; details: NCTC10649, 24 h
[5] = tested on: STAPHYLOCOCCUS EPIDERMIDIS 3519; experiment: microbe, parasite or virus in culture
ESCHERICHIA COLI H560 = experiment: In vitro antibacterial activity, agar dilution MIC; details: E. coli H560, BHI agar, 35-37° C., 20 to 24 hours, read-out: MIC
[6] = tested on: STREPTOCOCCUS PYOGENES 930 CONST; experiment: In vitro antibacterial activity, agar dilution MIC
[7] = tested on: PSEUDOMONAS AERUGINOSA K799/WT; experiment: In vitro antibacterial activity, agar dilution MIC; details: P. aeruginosa K799/WT, BHI agar, 35-37° C., 20 to 24 hours
[8] = tested on: ACINETOBACTER CALCOACETICUS CMX 669; experiment: In vitro antibacterial activity, agar dilution MIC; details: A. calcoaceticus CMX 669, BHI agar, 35-37° C., 20 to 24 hours
[9] = tested on: PROVIDENCIA STUARTII CMX 640; experiment: microbe, parasite or virus in culture; details: P. stuartii CMX 640, BHI agar, 35-37° C., 20 to 24 hours
ESCHERICHIA COLI JUHL = experiment: microbe, parasite or virus in culture
ESCHERICHIA COLI SS = experiment: In vitro antibacterial activity, agar dilution MIC
[10] = tested on: STAPHYLOCOCCUS AUREUS 642A; experiment: In vitro antibacterial activity, agar dilution MIC; details: 24 h
STAPHYLOCOCCUS AUREUS 45 = experiment: In vitro antibacterial activity, agar dilution MIC; details: 24 h
[11] = tested on: ENTEROBACTER AEROGENES ATCC 13048; experiment: In vitro antibacterial activity, agar dilution MIC; details: Klebsiella aerogenes, ATCC13048; E. aerogenes ATCC 13048; BHI agar, 35-37° C., 20 to 24 hours; read-out: MIC
PSEUDOMONAS CEPACIA 296I = experiment: In vitro antibacterial activity, agar dilution MIC; details: Burkholderia cepacia
[12] = tested on: STAPHYLOCOCCUS AUREUS ATCC 6538P; experiment: In vitro antibacterial activity, agar dilution MIC; details: ATCC6538P, 24 h
[13] = tested on: STREPTOCOCCUS PYOGENES 2548 INDUC; experiment: In vitro antibacterial activity, agar dilution MIC; details: S. pyogenes 2548 INDUC, BHI agar, 35-37° C., 20 to 24 hours, read-out: MIC
[14] = tested on: PSEUDOMONAS AERUGINOSA BMH10; experiment: In vitro antibacterial activity, agar dilution MIC; details: P. aeruginosa BMH10, BHI agar, 35-37° C., 20 to 24 hours, read-out: MIC
[15] = tested on: KLEBSIELLA PNEUMONIAE ATCC 8045; experiment: In vitro antibacterial activity, agar dilution MIC; details: ATCC8045, K. pneumoniae ATCC 8045, BHI agar, 35-37° C., 20 to 24 hours, read-out: MIC
EN[…] ATCC 8043 = experiment: In vitro antibacterial activity, agar dilution MIC; details: Enterococcus faecium, ATCC8043, 24 h
Experimental: (§1) Representative compounds of the present invention were assayed in vitro for antibacterial activity as follows: Twelve petri dishes containing successive aqueous dilutions of the test compound mixed with 10 ml of sterilized Brain Heart Infusion (BHI) agar (Difco 0418-01-5) were prepared. Each plate was inoculated with 1:100 (or 1:10 for slow-growing strains, such as Micrococcus and Streptococcus) dilutions of up to 32 different microorganisms, using a Steers replicator block. The inoculated plates were incubated at 35°-37° C. for 20 to 24 hours. In addition, a control plate, using BHI agar containing no test compound, was prepared and incubated at the beginning and end of each test.
(§2) An additional plate containing a compound having known susceptibility patterns for the organisms being tested and belonging to the same antibiotic class as the test compound was also prepared and incubated as a further control, as well as to provide test-to-test comparability. Erythromycin A was used for this purpose.
(§3) After incubation, each disk was read. The minimum inhibitory concentration (MIC) was defined as the lowest concentration of drug yielding no growth, a slight haze, or sparsely isolated colonies on the inoculum spot as compared to the growth control. The results of this assay, shown below in Tables 1 and 2, support the conclusion that the compounds of the invention are effective antibacterial agents.

[16] = tested on: PSEUDOMONAS AERUGINOSA K799/61; experiment: In vitro antibacterial activity, agar dilution MIC
Experimental: as §1, §2, §3

M[…] ATCC 9341 = experiment: In vitro antibacterial activity, agar dilution MIC; details: Micrococcus luteus, ATCC9341, 24 h
Experimental: as §1, §2, §3

M[…] ATCC 4698 = experiment: In vitro antibacterial activity, agar dilution MIC; details: Micrococcus luteus, ATCC4698, 24 h
Experimental: as §1, §2, §3

STR[…] 508 = experiment: In vitro antibacterial activity, agar dilution MIC; details: Streptococcus agalactiae, 24 h
Experimental: as §1, §2
(§4) After incubation, each disk was read. The minimum inhibitory concentration (MIC) was defined as the lowest concentration of drug yielding no growth, a slight haze, or sparsely isolated colonies on the inoculum spot as compared to the growth control.

STR[…] EES61 = experiment: In vitro antibacterial activity, agar dilution MIC; details: Streptococcus pyogenes, 24 h
Experimental: as §1, §2, §4

ESCHERICHIA COLI DC-2 = experiment: In vitro antibacterial activity, agar dilution MIC; details: E. coli DC-2, BHI agar, 35-37° C., 20 to 24 hours, read-out: MIC
[17] = tested on: STAPHYLOCOCCUS AUREUS 1775; experiment: In vitro antibacterial activity, agar dilution MIC
[18] = tested on: STREPTOCOCCUS BOVIS A5169; experiment: In vitro antibacterial activity, agar dilution MIC

SMILES	MIC [1]	MIC [3]	MIC [4]	MIC (ESCHERICHIA COLI H560)	MIC [7]	MIC [8]	MIC [9]	MIC [10]	MIC (STAPHYLOCOCCUS AUREUS 45)	MIC [11]	MIC [12]	MIC [13]	MIC [14]	MIC [15]	MIC (EN[…] ATCC 8043)	MIC (M[…] ATCC 9341)	MIC (M[…] ATCC 4698)	MIC (STR[…] 508)	MIC (STR[…] EES61)	MIC (ESCHERICHIA COLI DC-2)	also measured
CC[C@H]1OC(=O)[C@H](C)[C@@H](O[C@H]2C[C@@](C)(OC)[C@@H](O)[C@H](C)O2)[C@H](C)[C@@H](O[C@@H]2O[C@H](C)C[C@H](N(C)C)[C@H]2O)[C@](C)(O)C[C@@H](C)[C@@H](N(C)C)[C@H](C)[C@@H](O)[C@@]1(O)CN(C)Cc1ccccc1 [Compound 16, (9R)-21-(N-benzyl-N-methylamino)-9-deoxo-9-(N,N-dimethylamino)-erythromycinA]	12.5 µg/mL (≈ 14.2 µM)	100 µg/mL (≈ 113 µM)	12.5 µg/mL (≈ 14.2 µM)	100 µg/mL (≈ 113 µM)	> 100 µg/mL	> 100 µg/mL	100 µg/mL (≈ 113 µM)	3.1 µg/mL (≈ 3.51 µM)	6.2 µg/mL (≈ 7.03 µM)	100 µg/mL (≈ 113 µM)	12.5 µg/mL (≈ 14.2 µM)	50 µg/mL (≈ 56.7 µM)	> 100 µg/mL	> 100 µg/mL	3.1 µg/mL (≈ 3.51 µM)	6.2 µg/mL (≈ 7.03 µM)	0.39 µg/mL (≈ 0.442 µM)	0.1 µg/mL (≈ 0.113 µM)	0.39 µg/mL (≈ 0.442 µM)	1.56 µg/mL (≈ 1.77 µM)	MIC ([2]; S. aureus A5177, BHI agar, 35-37° C., 20 to 24 hours, read-out: MIC): > 100 µg/mL; MIC (ESCHERICHIA COLI KNK 437; 24 h): 50 µg/mL (≈ 56.7 µM); MIC ([5]; S. epidermidis 3519, BHI agar, 35-37° C., 20 to 24 hours, read-out: MIC): > 100 µg/mL; MIC ([6]; 24 h): 0.78 µg/mL (≈ 0.884 µM); MIC (ESCHERICHIA COLI JUHL; 24 h): 12.5 µg/mL (≈ 14.2 µM); MIC (ESCHERICHIA COLI SS; E. coli SS, BHI agar, 35-37° C., 20 to 24 hours, read-out: MIC): 100 µg/mL (≈ 113 µM); MIC (PSEUDOMONAS CEPACIA 296I; 24 h): 12.5 µg/mL (≈ 14.2 µM); MIC ([16]; 24 h): > 100 µg/mL; MIC ([17]; 24 h): 12.5 µg/mL (≈ 14.2 µM); MIC ([18]; S. bovis A5169, BHI agar, 35-37° C., 20 to 24 hours, read-out: MIC): 1.56 µg/mL (≈ 1.77 µM)
CC[C@H]1OC(=O)[C@H](C)[C@@H](O[C@H]2C[C@@](C)(OC)[C@@H](O)[C@H](C)O2)[C@H](C)[C@@H](O[C@@H]2O[C@H](C)C[C@H](N(C)C)[C@H]2O)[C@](C)(O)C[C@@H](C)[C@@H](N(C)C)[C@H](C)[C@@H](O)[C@@]1(O)CO [Compound 10, (9R)-9-deoxo-9-(N,N-dimethylamino)-21-hydroxyerythromycin A]	25 µg/mL (≈ 32.1 µM)	> 100 µg/mL	12.5 µg/mL (≈ 16 µM)	100 µg/mL (≈ 128 µM)	> 100 µg/mL	> 100 µg/mL	> 100 µg/mL	25 µg/mL (≈ 32.1 µM)	25 µg/mL (≈ 32.1 µM)	> 100 µg/mL	25 µg/mL (≈ 32.1 µM)	100 µg/mL (≈ 128 µM)	> 100 µg/mL	> 100 µg/mL	12.5 µg/mL (≈ 16 µM)	6.2 µg/mL (≈ 7.96 µM)	3.1 µg/mL (≈ 3.98 µM)	3.1 µg/mL (≈ 3.98 µM)	1.56 µg/mL (≈ 2 µM)	> 100 µg/mL	MIC ([2]; 24 h): > 100 µg/mL; MIC (ESCHERICHIA COLI KNK 437; E. coli KNK 437, BHI agar, 35-37° C., 20 to 24 hours): > 100 µg/mL; MIC ([5]; 24 h): 25 µg/mL (≈ 32.1 µM); MIC ([6]; S. pyogenes 930 CONST, BHI agar, 35-37° C., 20 to 24 hours, read-out: MIC): > 100 µg/mL; MIC (ESCHERICHIA COLI JUHL; E. coli JUHL, BHI agar, 35-37° C., 20 to 24 hours, read-out: MIC): > 100 µg/mL; MIC (ESCHERICHIA COLI SS; 24 h): 1.56 µg/mL (≈ 2 µM); MIC (PSEUDOMONAS CEPACIA 296I; P. cepacia 296I, BHI agar, 35-37° C., 20 to 24 hours, read-out: MIC): > 100 µg/mL; MIC ([16]; P. aeruginosa K799/61, BHI agar, 35-37° C., 20 to 24 hours, read-out: MIC): 50 µg/mL (≈ 64.2 µM); MIC ([17]; S. aureus 1775, BHI agar, 35-37° C., 20 to 24 hours, read-out: MIC): > 100 µg/mL; MIC ([18]; 24 h): 3.1 µg/mL (≈ 3.98 µM)
